Reference: PMC12410356 (International Journal for Parasitology: Drugs and Drug …, 2025)

system: E. multilocularis metacestode vesicles; assay: Phosphoglucose isomerase (PGI) release assay (damage-marker release) on metacestode vesicles; assay type: cell-based, Echinococcus multilocularis; details: confirmation screen, 10 μM, triplicates, mean, 5 days

SMILES | PGI d5 (relative PGI release) [%]
CCCCOC(=O)Nc1cc2nc(C3CCCCC3)[nH]c2cc1N(CC)CC [MMV1578842] | -0.74
O=C(NNC(=S)Nc1ccc(Cl)cc1)c1ccncc1 [MMV1782227] | 0.0543

same assay, conditions: confirmation screen, 10 μM, triplicates, mean, 12 days

SMILES | PGI d12 (relative PGI release) [%]
CCCCOC(=O)Nc1cc2nc(C3CCCCC3)[nH]c2cc1N(CC)CC [MMV1578842] | 0.24
O=C(NNC(=S)Nc1ccc(Cl)cc1)c1ccncc1 [MMV1782227] | -0.30

same assay, conditions: overview screen, 10 μM, singlets, 5 days, relative to 0.1 % Triton X-100, DMSO subtracted

SMILES | PGI d5 (relative PGI release) [%]
C[N+]1(C)CCCC(OC(=O)C(O)(c2ccccc2)c2ccccc2)C1 (stereo not drawn) [MMV002676] | -4.414
Cc1cccc(C)c1C(=O)Nc1nc(-c2ccccn2)cc2ccccc12 [MMV1581558] | 1.519
Cc1cccc(CC(=O)N[C@H]2CCOC2=O)c1 [MMV1579782] | 1.649
O=S(=O)(NCB(O)O)c1ccc(-c2nnn[nH]2)cc1C(F)(F)F [MMV1782411] | -0.527
O=S(=O)(NCB(O)O)c1cc2c(Cl)ccc(Cl)c2s1 [MMV1580841] | -1.0927
COc1ccc(C(C)(C)C)cc1NC(=O)C(=O)c1ccc(OCCN2CCOCC2)c2ccccc12 [MMV1782209] | 0.2921
CCOC(=O)N1CCN(c2ccc(Cl)cc2)CC1 [MMV1578898] | -0.03171
CSC[C@H]1CN(Cc2c[nH]c3c(N)ncnc23)C[C@@H]1O [MMV1578565] | -1.805
Nc1cc(N)c2nc(-c3ccccc3)c(Nc3ccc(F)cc3)nc2c1 [MMV1581554] | 4.452
O=S(=O)(Nc1ccccc1)c1ccc(NC(=S)Nc2ccccc2)cc1 [MMV1578562] | -3.292
CCc1cc(CCCOc2c(C)cc(-c3noc(C(F)(F)F)n3)cc2C)on1 [MMV1634556] | 0.6182
FC(F)(F)c1cc(C(F)(F)F)c2ccc3nc(-c4nnco4)cn3c2n1 [MMV690555] | 0.9496
NNC(=O)c1ccncc1 [MMV002169] | 1.814
O=C(O)/C=C/C=C/c1cccc(Oc2cc(Cl)cc(Cl)c2)c1 [MMV1633963] | 0.04404
CCCCOC(=O)Nc1cc2nc(C3CCCCC3)[nH]c2cc1N(CC)CC [MMV1578842] | 1.645
CN(O)C(=O)c1cc2c(CN3CCC[C@H]3C(N)=O)cn(Cc3ccc(F)cc3)c2cn1 [MMV1782386] | 0.7573
O=C(NNC(=S)Nc1ccc(Cl)cc1)c1ccncc1 [MMV1782227] | 3.665
C[C@@H](NC(=O)c1cccc(-c2cnc(-c3cc4ccccc4cn3)[nH]2)c1)c1ccc(F)cc1 [MMV1782211] | 2.451
CNc1nc(=O)[nH]cc1F [MMV1782388] | -3.006
O=C(NCc1ncc(C(F)(F)F)cc1Cl)c1c(Cl)cccc1Cl [MMV689401] | -2.654
O=C(c1nc2c(C(F)(F)F)cc(C3CC3)cn2c1Cl)N1CCN([C@H]2CC[C@H](O)CC2)C(=O)C1 [MMV1634396] | 0.0006202
O=C(CP(=O)(O)O)NCCc1cccc(Oc2ccccc2)c1 [MMV1579787] | -1.804

same assay, conditions: overview screen, 10 μM, singlets, 12 days, relative to 0.1 % Triton X-100, DMSO subtracted

SMILES | PGI d12 (relative PGI release) [%]
C[N+]1(C)CCCC(OC(=O)C(O)(c2ccccc2)c2ccccc2)C1 (stereo not drawn) [MMV002676] | -4.73
Cc1cccc(C)c1C(=O)Nc1nc(-c2ccccn2)cc2ccccc12 [MMV1581558] | 3.408
Cc1cccc(CC(=O)N[C@H]2CCOC2=O)c1 [MMV1579782] | 1.447
O=S(=O)(NCB(O)O)c1ccc(-c2nnn[nH]2)cc1C(F)(F)F [MMV1782411] | -17.35
O=S(=O)(NCB(O)O)c1cc2c(Cl)ccc(Cl)c2s1 [MMV1580841] | -26.0917
COc1ccc(C(C)(C)C)cc1NC(=O)C(=O)c1ccc(OCCN2CCOCC2)c2ccccc12 [MMV1782209] | 0.2691
CCOC(=O)N1CCN(c2ccc(Cl)cc2)CC1 [MMV1578898] | 1.172
CSC[C@H]1CN(Cc2c[nH]c3c(N)ncnc23)C[C@@H]1O [MMV1578565] | -12.574
Nc1cc(N)c2nc(-c3ccccc3)c(Nc3ccc(F)cc3)nc2c1 [MMV1581554] | -9.136
O=S(=O)(Nc1ccccc1)c1ccc(NC(=S)Nc2ccccc2)cc1 [MMV1578562] | -3.243
CCc1cc(CCCOc2c(C)cc(-c3noc(C(F)(F)F)n3)cc2C)on1 [MMV1634556] | -18.063
FC(F)(F)c1cc(C(F)(F)F)c2ccc3nc(-c4nnco4)cn3c2n1 [MMV690555] | 0.5886
NNC(=O)c1ccncc1 [MMV002169] | -1
O=C(O)/C=C/C=C/c1cccc(Oc2cc(Cl)cc(Cl)c2)c1 [MMV1633963] | 0.4233
CCCCOC(=O)Nc1cc2nc(C3CCCCC3)[nH]c2cc1N(CC)CC [MMV1578842] | 57.0254
CN(O)C(=O)c1cc2c(CN3CCC[C@H]3C(N)=O)cn(Cc3ccc(F)cc3)c2cn1 [MMV1782386] | -1.18
O=C(NNC(=S)Nc1ccc(Cl)cc1)c1ccncc1 [MMV1782227] | 72.3585
C[C@@H](NC(=O)c1cccc(-c2cnc(-c3cc4ccccc4cn3)[nH]2)c1)c1ccc(F)cc1 [MMV1782211] | 6.1027
CNc1nc(=O)[nH]cc1F [MMV1782388] | -25.8676
O=C(NCc1ncc(C(F)(F)F)cc1Cl)c1c(Cl)cccc1Cl [MMV689401] | -25.1085
O=C(c1nc2c(C(F)(F)F)cc(C3CC3)cn2c1Cl)N1CCN([C@H]2CC[C@H](O)CC2)C(=O)C1 [MMV1634396] | 0.1204
O=C(CP(=O)(O)O)NCCc1cccc(Oc2ccccc2)c1 [MMV1579787] | -11.6628

system: E. multilocularis metacestode vesicles; assay: Metacestode vesicle viability assay (ATP, CellTiter-Glo); assay type: cell-based, Echinococcus multilocularis; details: confirmation screen, 10 μM, triplicates, mean, 12 days
Method: Viability was assessed after 12 days using the same metacestode vesicles as for the PGI release assay. Triton X-100 was added to each well to a final concentration of 0.1 %. Subsequently the metacestode vesicles were broken mechanically and 50 μL of the supernatant was mixed with 50 μL of CellTiter-Glo® buffer (Promega, Dübendorf, Switzerland). Measurements were performed on a HIDEX Sense microplate reader.

SMILES | Viability d12 (relative viability) [%]
CCCCOC(=O)Nc1cc2nc(C3CCCCC3)[nH]c2cc1N(CC)CC [MMV1578842] | 57.98
O=C(NNC(=S)Nc1ccc(Cl)cc1)c1ccncc1 [MMV1782227] | 83.65

same assay, conditions: overview screen, 10 μM, singlets, 12 days, relative to DMSO control

SMILES | Viability d12 (relative viability) [%]
C[N+]1(C)CCCC(OC(=O)C(O)(c2ccccc2)c2ccccc2)C1 (stereo not drawn) [MMV002676] | 80.9524
Cc1cccc(C)c1C(=O)Nc1nc(-c2ccccn2)cc2ccccc12 [MMV1581558] | 99.5465
Cc1cccc(CC(=O)N[C@H]2CCOC2=O)c1 [MMV1579782] | 167.646
O=S(=O)(NCB(O)O)c1ccc(-c2nnn[nH]2)cc1C(F)(F)F [MMV1782411] | 79.3081
O=S(=O)(NCB(O)O)c1cc2c(Cl)ccc(Cl)c2s1 [MMV1580841] | 81.7436
COc1ccc(C(C)(C)C)cc1NC(=O)C(=O)c1ccc(OCCN2CCOCC2)c2ccccc12 [MMV1782209] | 152.31
CCOC(=O)N1CCN(c2ccc(Cl)cc2)CC1 [MMV1578898] | 47.7603
CSC[C@H]1CN(Cc2c[nH]c3c(N)ncnc23)C[C@@H]1O [MMV1578565] | 59.0324
Nc1cc(N)c2nc(-c3ccccc3)c(Nc3ccc(F)cc3)nc2c1 [MMV1581554] | 104.705
O=S(=O)(Nc1ccccc1)c1ccc(NC(=S)Nc2ccccc2)cc1 [MMV1578562] | 118.128
CCc1cc(CCCOc2c(C)cc(-c3noc(C(F)(F)F)n3)cc2C)on1 [MMV1634556] | 121.169
FC(F)(F)c1cc(C(F)(F)F)c2ccc3nc(-c4nnco4)cn3c2n1 [MMV690555] | 300.676
NNC(=O)c1ccncc1 [MMV002169] | 113.159
O=C(O)/C=C/C=C/c1cccc(Oc2cc(Cl)cc(Cl)c2)c1 [MMV1633963] | 136.634
CCCCOC(=O)Nc1cc2nc(C3CCCCC3)[nH]c2cc1N(CC)CC [MMV1578842] | 6.68
CN(O)C(=O)c1cc2c(CN3CCC[C@H]3C(N)=O)cn(Cc3ccc(F)cc3)c2cn1 [MMV1782386] | 103.448
O=C(NNC(=S)Nc1ccc(Cl)cc1)c1ccncc1 [MMV1782227] | 12.3576
C[C@@H](NC(=O)c1cccc(-c2cnc(-c3cc4ccccc4cn3)[nH]2)c1)c1ccc(F)cc1 [MMV1782211] | 82.804
CNc1nc(=O)[nH]cc1F [MMV1782388] | 224.858
O=C(NCc1ncc(C(F)(F)F)cc1Cl)c1c(Cl)cccc1Cl [MMV689401] | 22.5442
O=C(c1nc2c(C(F)(F)F)cc(C3CC3)cn2c1Cl)N1CCN([C@H]2CC[C@H](O)CC2)C(=O)C1 [MMV1634396] | 113.417
O=C(CP(=O)(O)O)NCCc1cccc(Oc2ccccc2)c1 [MMV1579787] | 61.3703
